Test results taken from patent publication US20260167654A1, “PLANT CELL WALL-DISSOLVING AGENT” (Kanazawa University, priority 2022, published 2026).

Legend:
[1] = State of the zwitterions at 25° C.; assay type: physicochemical; settings: room temperature (25° C.)
Protocol: C1imC2OE3C (R^1═CH3, A=imidazolium cation, R^3═CH2CH2, n=3, and B=—COO^−) obtained in Synthesis Example 1 and OE2imC2OE3C(R^1═H3C(OCH2CH2)2, A=imidazolium cation, R^3═CH2CH2, n=3, and B=—COO^−) obtained in Synthesis Example 2 were both liquid at room temperature (25° C.).

[2] = Viscosity measurement (Brookfield viscometer, CPE52 spindle); assay type: physicochemical
Protocol: The viscometer used was Brookfield LVDV2TCP with a CPE52 spindle, or Brookfield RVDV2T with a CPE52 spindle.
C1imC2OE3C obtained in Synthesis Example 1 and OE2imC2OE3C obtained in Synthesis Example 2 were measured for viscosity at 80° C. The viscometer used was Brookfield LVDV2TCP with a CPE52 spindle. The viscometer was heated to 80° C. by passing warm water therethrough, and the viscosity of the samples was measured.

[3] = Cellulose solubility (cellulose added in 1 wt % steps, heating and stirring 1 hour, visual); assay type: physicochemical
Protocol: The cellulose solubility of C1imC2OE3C obtained in Synthesis Example 1, OE2imC2OE3C obtained in Synthesis Example 2, and OE2imC3C (R^1═H3C(OCH2CH2)2, A=imidazolium cation, B=—COO^−, and n=0 (a compound having no oxyalkylene structure between the cationic and anionic moieties; the compound described in Non-Patent Literature 2)) as a comparative example was measured. […] The concentration at which cellulose dissolution was confirmed was visually measured.
Thus, when heating to 80° C., a stirrer rotated in C1imC2P and started to rotate smoothly at 120° C. Accordingly, a cellulose solubility experiment was performed at 120° C. Avicel was added in increments of 1 wt %, and when dissolved over 1 hour, additional Avicel was added in increments of 1 wt %. As a result of the experiment, C1imC2P dissolved 4 wt % Avicel.

[4] = TG-DTA pyrolysis temperature (weight loss on heating at 10° C./min); assay type: physicochemical
Protocol: Experimental method: Under N2 atmosphere, the temperature was increased to 500° C. at a rate of 10° C./min starting at room temperature. The pyrolysis point was evaluated at the intersection of the tangent lines between the steady state and the decomposition.
C1imC2OE3C obtained in Synthesis Example 1 was heated at a rate of 10° C./min, and the temperature at which the weight loss occurred (pyrolysis temperature) was measured. As a result, this compound was thermally decomposed at about 249° C. and was stable up to 249° C.

[5] = Differential scanning calorimetry; assay type: physicochemical
Protocol: Experimental method: Under N2 atmosphere, liquid nitrogen was used during cooling. After the temperature was increased at a rate of 10° C./min to 20° C. below the pyrolysis point starting at 25° C., two sets of “cooling to −100° C. at a rate of −10° C./min→heating to 20° C. below the pyrolysis point at a rate of 10° C./min” were repeated (holding time: 5 minutes for each stage), followed by cooling down to 25° C.
C1imC2OE3C obtained in Synthesis Example 1 was subjected to differential scanning calorimetry.

Kluyveromyces marxianus = assay: Toxicity to yeast (OD600 of culture in liquid medium); assay type: cell-based; settings: culturing at 50° C., concentration and time of the value not stated
Protocol: The toxicity of C1imC2P to yeast was examined. The yeast used was Kluyveromyces marxianus. C1imC2P was added to a liquid medium at concentrations of 0 mol/L, 0.01 mol/L, 0.05 mol/L, 0.1 mol/L, 0.5 mol/L and 1.0 mol/L respectively. This was inoculated with bacteria, and while culturing at 50° C., OD600 was measured with a plate reader 0, 2, 4, and 6 hours later. OD600 indicates the density of bacterial cells. Further, relative OD600 is a relative parameter when the control is 1.00. A higher value of relative OD600 indicates a lower toxicity of the zwitterion. The relative OD600 of C1imC2P was 0.77, indicating low toxicity.

Structure (SMILES)	State at 25° C. [1]	Viscosity at 80° C. [2]	Cellulose solubility ([3]; 100° C.) [wt %]	Cellulose solubility ([3]; 120° C.) [wt %]	stable (does not decompose) up to temperature [4]	pyrolysis temperature (temperature at which the weight loss occurred) ([4]; heated at a rate of 10° C./min)	did not change / in a liquid state from room temperature up to temperature [5]	Viscosity (in words) ([2]; 100 wt % zwitterion, room temperature (25° C.))	Cellulose solubility (Avicel dissolved) ([3]; 120° C., Avicel added in increments of 1 wt %, 1 hour each) [wt %]	relative OD600 (control is 1.00) (Kluyveromyces marxianus)
COCCOCC[n+]1ccn(CCOCCOCCOCCC(=O)[O-])c1 [OE2imC2OE3C]	liquid	810 mPa · s	11	11	–	–	–	–	–	–
COCCOCCn1cc[n+](CCCC(=O)[O-])c1 [OE2imC3C, reference compound]	solid	940 mPa · s	6	10	–	–	–	–	–	–
C[n+]1ccn(CCOCCOCCOCCC(=O)[O-])c1 [Zwitterion C1imC2OE3C]	liquid	2,500 mPa · s	11	14	up to 249 °C	about 249 °C	around 250 °C	–	–	–
C[n+]1ccn(CCOP(=O)([O-])O)c1 [Zwitterion C1imC2P]	liquid	–	–	–	–	–	–	very high viscosity	4	0.77
